# Data reported in ChEMBL document CHEMBL6177936, “Stachydrine, a pyrrole alkaloid with promising therapeutic potential against metabolic syndrome and associated organ dysfunction” (RSC Med Chem, 2024).
# Legend:
# [1] = AUC(0 to infinity) in KYDS rat at 1 g/Kg, IG by LC-MS/MS analysis; format: ADME; conditions: in vivo, po, 1000 mg/kg
# [2] = Half life in KYDS rat at 1 g/Kg, IG by LC-MS/MS analysis; format: ADME; conditions: in vivo, po, 1000 mg/kg
# [3] = Cmax in KYDS rat at 1 g/Kg, IG by LC-MS/MS analysis; format: ADME; conditions: in vivo, po, 1000 mg/kg
# [4] = AUC(infinity) in CSBS-PD induced Sprague-Dawley rat at 15.28 mg/kg, po incubated for 24 hrs by LC-MS/MS analysis; format: ADME, organism-based; conditions: in vivo
# [5] = Clearance in Wistar rat at 10 mg/kg, iv measured for 24 hrs by LC-MS/MS analysis; format: ADME, organism-based; conditions: in vivo
# [6] = AUC (0 to infinity) in Wistar rat at 166.3 mg/kg, po; format: ADME, organism-based; conditions: in vivo
# [7] = Half life in Sprague-Dawley rat at 9.86 mg/kg, po by UPLC-MS/MS analysis; format: ADME, organism-based; conditions: in vivo
# [8] = AUC (0 to infinity) in Wistar rat at 10 mg/kg, iv measured for 24 hrs by LC-MS/MS analysis; format: ADME, organism-based; conditions: in vivo
# [9] = MRT(infinity) in CSBS-PD induced Sprague-Dawley rat at 15.28 mg/kg, po incubated for 24 hrs by LC-MS/MS analysis; format: ADME, organism-based; conditions: in vivo
# [10] = Cmax in Sprague-Dawley rat at 9.86 mg/kg, po by UPLC-MS/MS analysis; format: ADME, organism-based; conditions: in vivo
# [11] = MRT (0 to infinity) in KYDS rat at 1 g/Kg, IG by LC-MS/MS analysis; format: ADME; conditions: in vivo, po, 1000 mg/kg
# [12] = Tmax in Wistar rat at 166.3 mg/kg, po; format: ADME, organism-based; conditions: in vivo
# [13] = MRT (0 to infinity) in Sprague-Dawley rat at 9.86 mg/kg, po by UPLC-MS/MS analysis; format: ADME, organism-based; conditions: in vivo
# [14] = Cmax in Wistar rat at 166.3 mg/kg, po; format: ADME, organism-based; conditions: in vivo
# [15] = Tmax in Sprague-Dawley rat at 9.86 mg/kg, po by UPLC-MS/MS analysis; format: ADME, organism-based; conditions: in vivo
# [16] = Tmax in KYDS rat at 1 g/Kg, IG by LC-MS/MS analysis; format: ADME; conditions: in vivo, po, 1000 mg/kg
# [17] = Cmax in Wistar rat at 10 mg/kg, iv measured for 24 hrs by LC-MS/MS analysis; format: ADME, organism-based; conditions: in vivo
# [18] = MRT (0 to infinity) in Wistar rat at 166.3 mg/kg, po; format: ADME, organism-based; conditions: in vivo
# [19] = Cmax in CSBS-PD induced Sprague-Dawley rat at 15.28 mg/kg, po incubated for 24 hrs by LC-MS/MS analysis; format: ADME, organism-based; conditions: in vivo
# [20] = Half life in CSBS-PD induced Sprague-Dawley rat at 15.28 mg/kg, po incubated for 24 hrs by LC-MS/MS analysis; format: ADME, organism-based; conditions: in vivo
# [21] = Half life in Wistar rat at 166.3 mg/kg, po; format: ADME, organism-based; conditions: in vivo
# [22] = AUC (0 to infinity) in Sprague-Dawley rat at 9.86 mg/kg, po by UPLC-MS/MS analysis; format: ADME, organism-based; conditions: in vivo
# [23] = Tmax in CSBS-PD induced Sprague-Dawley rat at 15.28 mg/kg, po incubated for 24 hrs by LC-MS/MS analysis; format: ADME, organism-based; conditions: in vivo
# [24] = Apparent oral clearance in KYDS rat at 1 g/Kg, IG by LC-MS/MS analysis; format: ADME; conditions: in vivo, 1000 mg/kg
# [25] = Half life in Sprague-Dawley rat at 15.28 mg/kg, po incubated for 24 hrs by LC-MS/MS analysis; format: ADME, organism-based; conditions: in vivo
structure (smiles),measurement,setting,value
C[N+]1(C)CCC[C@H]1C(=O)[O-],AUC,[1],1279.31 µg/L/h
same,half-life,[2],6.59 h
same,Cmax,[3],135 ng/mL
same,AUC,[4],99240 ng·h/mL
same,clearance,[5],15.5 mL/min/kg
same,AUC(0-inf),[6],2900 ng·h/mL
same,half-life,[7],3.79 h
same,AUC,[8],12026.7 h/ng/mL
same,MRT inf,[9],9.97 h
same,Cmax,[10],673 ng/mL
same,MRT inf,[11],9.21 h
same,Tmax,[12],0.75 h
same,MRT inf,[13],4.44 h
same,Cmax,[14],1610 ng/mL
same,Tmax,[15],1.5 h
same,Tmax,[16],1.08 h
same,Cmax,[17],6400 ng/mL
same,MRT inf,[18],1.67 h
same,Cmax,[19],14000 ng/mL
same,half-life,[20],5.51 h
same,half-life,[21],1.64 h
same,AUC(0-inf),[22],2800 ng·h/mL
same,Tmax,[23],2.83 h
same,CL/F,[24],1 mL/min/kg
same,half-life,[25],3.89 h
